Results: patent publication EP1641451B1, “METHOD FOR PHOTODYNAMIC INACTIVATION OF PATHOGENS USING ALA” (MACO PHARMA, priority 2003, dated 2005)

Key:
Assay type in all cases: cell-based
[1] = tested on: plaquettes; experiment: Platelet functionality: visual inspection of swirling (tournoiement) of the CPA; conditions: ALA 4 mM; CPA 10 g/L proteins; after 1 h30 illumination at 365 nm
Source text: (§1) Dans cet exemple, deux tests ont été effectués afin d'évaluer la fonctionnalité des plaquettes en présence de différentes concentrations d'ALA après illumination à l'aide des lampes UVA (365 nm).
Le premier test est la visualisation du tournoiement ou « swirling », c'est-à-dire l'inspection visuelle du CPA à travers une source lumineuse (phénomène lié à la présence de formes discoïdes dans la suspension plaquettaire).
(§2) Ces deux tests ont été réalisés sur un CPA ajusté à 10 g/L de protéines en présence de concentration croissante d'ALA après 1 h30 d'illumination à 365 nm.
(§3) Le même test a été réalisé sans illumination (1 h30 d'agitation douce à l'obscurité)
(§4) Un test d'agrégation et une inspection visuelle du tournoiement ont été réalisées sur un CPA ajusté à 10 g/L de protéines en présence de PpX sel disodique dans du NaOH 1 N 0,1 % (après 30 minutes d'illumination à 365 nm). Le nombre de plaquettes par poche de 8 ml est de 7,6.10^9.

[2] = tested on: plaquettes; experiment: Platelet functionality: collagen aggregation test (thrombo-aggregometer, turbidimetry); conditions: for % d'aggrégation: CPA 10 g/L proteins
Method: as §1
Le second test est un test d'agrégation au collagène. Ce test est réalisé à l'aide d'un thrombo-agrégomètre (SEFAM, Regulest, Fleurange, France). L'activation plaquettaire par un agoniste (collagène) est estimée in vitro par turbidimétrie, en enregistrant en continu à 37°C et sous agitation, la transmission d'un faisceau de lumière à travers la suspension plaquettaire. Le regroupement des plaquettes en amas de plus en plus volumineux s'accompagne d'un éclaircissement progressif du milieu. Les résultats sont rendus en pourcentage d'agrégation en fonction du temps, le 100% d'agrégation correspondant au plasma pauvre en plaquettes et le 0% d'agrégation correspondant à l'échantillon avant l'ajout de l'agoniste. L'enregistrement de la transmission lumineuse est déclenché au moment de l'ajout d'un faible volume de l'agoniste à l'échantillon. Ainsi, nous pouvons visualiser le temps de latence, le changement de forme des plaquettes puis l'agrégation qui peut être stable ou réversible.
as §2, §3, §4

[3] = tested on: Klebsiella pneumoniae; experiment: Bacterio-attenuation test in contaminated CPA, photodynamic treatment at 365 nm
Method: (§5) Les bactéries sont injectées dans les échantillons à une concentration finale de 1 bactérie pour 50 000 plaquettes. Les bactéries sont mises en culture dans un bouillon Thyoglycolate-Resazurine (ref: 42074, Biomérieux Marcy l'Etoile, France) (0,5 mL de suspension bactérienne en bouillon ou une colonie sur gélose dans 9 mL de bouillon). Elles sont incubées 24 h à 37°C pour qu'elles soient en phase de croissance lors de leur utilisation. Avant leur utilisation, le bouillon de culture est centrifugé à 2500 g pendant 10 min. à 21°C, le culot est repris dans du NaCl 0,9 % et celui-ci est lavé 3 fois à 2500 g pendant 10 min. à 21 °C.
(§6) Le titre bactérien de la suspension lavée et diluée est évalué par une lecture de densité optique à 630 nm. Une dilution de la suspension bactérienne est ensuite réalisée pour obtenir une concentration finale de 1 bactérie pour 50 000 plaquettes.
(§7) Pour réaliser les tests de bactério-atténuation, les CPA dilués sont aliquotés dans la solution SSP (MacoPharma, Tourcoing, France) pour obtenir une concentration finale en protéines de 10 g/L dans des poches en PVC. Puis 1 mL de suspension bactérienne est injecté. Le volume final contenu dans les poches est de 8 mL. Le tout est homogénéisé pour un meilleur contact entre les plaquettes et les bactéries.
(§8) L'illumination se fait à l'aide d'une lampe UVA comportant deux tubes (réf. VL-215BL, Vilber Lourmat, France) génératrice de rayons UV 365 nm et de lumière visible d'une intensité de 108 µW/cm^2 à une distance de 1 m de l'échantillon. La lampe est disposée à une distance de 13 cm des poches à traitées. L'illumination se fait à 4°C. La lampe délivre une dose de 23 J/cm^2 en 1 h.
(§9) Après illumination, une numération bactérienne est réalisée pour mesurer la diminution du tire bactérien dans les poches traitées. Pour cela, 1 mL de la dilution la plus appropriée est étalée sur des géloses nutritives Trypcase-soja (ref : 43011, boîtes de 90 mm de diamètre, Biomérieux, Marcy l'Etoile, France). Les géloses sont ensuite incubées 24 h à 37 °C pour pouvoir effectuer un comptage. Les résultats sont exprimés en ufc/mL.
Des tests de bactério-atténuation ont été effectués sur Klebsiella pneumoniae. Les tests sont réalisés sur des CPA ajustés à 10 g/L de protéines. Le nombre de plaquettes par poche de 8 mL est de 10,5.10^9.
Les poches sont incubées 1h à température ambiante puis illuminées par irradiation à 365 nm (Fig. 4 et 5).

[4] = tested on: Escherichia coli; experiment: as above
Method: as §5, §6, §7, §8, §9
Des tests de bactério-atténuation ont été effectués sur E. coli. Les tests sont réalisés sur des CPA ajustés à 10 g/L de protéines. Le nombre de plaquettes par poche de 8 ml est de 4,7 10^9.
Les poches sont incubées 1 h à 37°C avant d'être irradiées à 365 nm (Fig. 6).
Sans incubation, les résultats sont les suivants (Fig. 7) : […]

NCC(=O)CCC(=O)O [ALA, acide 5-aminolévulinique]
Swirling [1]: Faible+ | % d'aggrégation ([2]; ALA 1 mM, after 1 h30 illumination at 365 nm, collagen): 80% | % d'aggrégation ([2]; ALA 1 mM, no illumination, 1 h30 in the dark, collagen): 84% | % d'aggrégation ([2]; ALA 2 mM, after 1 h30 illumination at 365 nm, collagen): 69% | % d'aggrégation ([2]; ALA 2 mM, no illumination, 1 h30 in the dark, collagen): 84% | % d'aggrégation ([2]; ALA 3 mM, after 1 h30 illumination at 365 nm, collagen): 76% | % d'aggrégation ([2]; ALA 3 mM, no illumination, 1 h30 in the dark, collagen): 82% | % d'aggrégation ([2]; ALA 4 mM, after 1 h30 illumination at 365 nm, collagen): 53% | % d'aggrégation ([2]; ALA 4 mM, no illumination, 1 h30 in the dark, collagen): 76% | % d'aggrégation ([2]; ALA 5 mM, after 1 h30 illumination at 365 nm, collagen): 26% | % d'aggrégation ([2]; ALA 5 mM, no illumination, 1 h30 in the dark, collagen): 78% | fonctionnalité des plaquettes ([2]; illumination of CPA with too high a concentration of ALA): semble faire perdre de leur fonctionnalité aux plaquettes | titre bactérien Klebsiella ([3]; ALA 1 mM, Incub. 1 h at room temperature): 187 10^-2 ufc/ml | titre bactérien Klebsiella ([3]; ALA 1 mM, Incub. 1 h then Irr. 1h30 at 365 nm): 5 10^-2 ufc/ml | titre bactérien Klebsiella ([3]; ALA 1 mM, Incub. 1 h then Irr. 1 h at 365 nm): 14 10^-2 ufc/ml | titre bactérien Klebsiella ([3]; ALA 1 mM, T0, CPA 10 g/L proteins): 201 10^-2 ufc/ml | titre bactérien Klebsiella ([3]; ALA 2 mM, Incub 1 h at room temperature): 163 10^-2 ufc/ml | titre bactérien Klebsiella ([3]; ALA 2 mM, Incub 1 h then Irr 1 h30 at 365 nm): 1 10^-2 ufc/ml | titre bactérien Klebsiella ([3]; ALA 2 mM, Incub 1 h then Irr. 1 h at 365 nm): 9 10^-2 ufc/ml | titre bactérien Klebsiella ([3]; ALA 2 mM, T0, CPA 10 g/L proteins): 159 10^-2 ufc/ml | titre bactérien Klebsiella ([3]; ALA 3 mM, Incub 1 h at room temperature): 168 10^-2 ufc/ml | titre bactérien Klebsiella ([3]; ALA 3 mM, Incub 1 h then Irr 1 h30 at 365 nm): 1 10^-2 ufc/ml | titre bactérien Klebsiella ([3]; ALA 3 mM, Incub 1 h then Irr. 1 h at 365 nm): 8 10^-2 ufc/ml | titre bactérien Klebsiella ([3]; ALA 3 mM, T0, CPA 10 g/L proteins): 179 10^-2 ufc/ml | titre bactérien Klebsiella ([3]; ALA 4 mM, Incub 1h at room temperature): 192 10^-2 ufc/ml | titre bactérien Klebsiella ([3]; ALA 4 mM, Incub 1h then Irr 1h30 at 365 nm): 1 10^-2 ufc/ml | titre bactérien Klebsiella ([3]; ALA 4 mM, Incub 1h then Irr. 1h at 365 nm): 6 10^-2 ufc/ml | titre bactérien Klebsiella ([3]; ALA 4 mM, T0, CPA 10 g/L proteins): 183 10^-2 ufc/ml | titre bactérien Klebsiella ([3]; ALA 5 mM, Incub. 1h at room temperature): 175 10^-2 ufc/ml | titre bactérien Klebsiella ([3]; ALA 5 mM, Incub. 1h then 'Irr 1h 1h30' at 365 nm): 0 10^-2 ufc/ml | titre bactérien Klebsiella ([3]; ALA 5 mM, Incub. 1h then 'Irr.' at 365 nm): 4 10^-2 ufc/ml | titre bactérien Klebsiella ([3]; ALA 5 mM, T0, CPA 10 g/L proteins): 178 10^-2 ufc/ml | inactivation de K. pneumoniae ([3]; CPA irradiated 1h and 1 h30 at 365 nm with ALA 1-5 mM, no significant difference between concentrations): obtenue | titre bactérien E. Coli ([4]; ALA 5 mM, Incub 1h at 37°C): 231 10^-2 ufc/ml | titre bactérien E. Coli ([4]; ALA 5 mM, Incub 1h at 37°C then Irr 1h30 at 365 nm): 1 10^-2 ufc/ml | titre bactérien E. Coli ([4]; ALA 5 mM, Incub 1h at 37°C then Irr. 1h at 365 nm): 17 10^-2 ufc/ml | titre bactérien E. Coli ([4]; ALA 5 mM, T0, CPA 10 g/L proteins, series with incubation): 172 10^-2 ufc/ml | titre bactérien E. Coli ([4]; ALA 5 mM, T0, without incubation): 183 10^-2 ufc/ml | titre bactérien E. Coli ([4]; ALA 5 mM, without incubation, Irr 1 h30 at 365 nm): 2 10^-2 ufc/ml | titre bactérien E. Coli ([4]; ALA 5 mM, without incubation, Irr. 1h at 365 nm): 48 10^-2 ufc/ml | inactivation de E.coli ([4]; ALA (5 mM), even without incubation, irradiation at 365 nm): efficace | inactivation de E.coli ([4]; CPA irradiated 1 h and 1 h30 at 365 nm with ALA (5 mM), after 1 h incubation at 37°C): obtenue

protoporphyrine IX [PpIX]
% d'aggrégation ([2]; PpIX 1 µM, after 30 minutes illumination at 365 nm): 53% | % d'aggrégation ([2]; PpIX 5µM, after 30 minutes illumination at 365 nm): 16% | % d'aggrégation ([2]; PpIX 10 µM, after 30 minutes illumination at 365 nm): 16% | % d'aggrégation ([2]; PpIX 20 µM, after 30 minutes illumination at 365 nm): 15% | inactivation de K. pneumoniae ([3]; PpIX 10µM, same conditions (incubation 1h, irradiation 1h and 1h30 at 365 nm)): ne permet pas l'inactivation | titre bactérien Klebsiella ([3]; PpIX 10 µM, Incub 1h at room temperature): 162 10^-2 ufc/ml | titre bactérien Klebsiella ([3]; PpIX 10 µM, Incub 1h then Irr 1h30 at 365 nm): 203 10^-2 ufc/ml | titre bactérien Klebsiella ([3]; PpIX 10 µM, Incub 1h then Irr. 1h at 365 nm): 178 10^-2 ufc/ml | titre bactérien Klebsiella ([3]; PpIX 10 µM, T0, CPA 10 g/L proteins): 181 10^-2 ufc/ml | inactivation de E.coli ([4]; PpIX 10 µM, irradiation at 365 nm): inefficace | titre bactérien E. Coli ([4]; PpIX 10 µm, T0, without incubation): 166 10^-2 ufc/ml | titre bactérien E. Coli ([4]; PpIX 10 µm, without incubation, Irr 1 h30 at 365 nm): 108 10^-2 ufc/ml | titre bactérien E. Coli ([4]; PpIX 10 µm, without incubation, Irr. 1h at 365 nm): 171 10^-2 ufc/ml
